Source: ChEMBL document CHEMBL3232708, “Discovery of a tetracyclic quinoxaline derivative as a potent and orally active multifunctional drug candidate for the treatment of neuropsychiatric and neurological disorders” (J Med Chem, 2014)
Calls of active or inactive are those of the source. The calls are words filed in the database; no cut-off is given here.

How the values were obtained:
D(4) dopamine receptor = biological target: T1, D(4) dopamine receptor (Homo sapiens, UniProt P21917)
T1 sequence (P21917 whole entry): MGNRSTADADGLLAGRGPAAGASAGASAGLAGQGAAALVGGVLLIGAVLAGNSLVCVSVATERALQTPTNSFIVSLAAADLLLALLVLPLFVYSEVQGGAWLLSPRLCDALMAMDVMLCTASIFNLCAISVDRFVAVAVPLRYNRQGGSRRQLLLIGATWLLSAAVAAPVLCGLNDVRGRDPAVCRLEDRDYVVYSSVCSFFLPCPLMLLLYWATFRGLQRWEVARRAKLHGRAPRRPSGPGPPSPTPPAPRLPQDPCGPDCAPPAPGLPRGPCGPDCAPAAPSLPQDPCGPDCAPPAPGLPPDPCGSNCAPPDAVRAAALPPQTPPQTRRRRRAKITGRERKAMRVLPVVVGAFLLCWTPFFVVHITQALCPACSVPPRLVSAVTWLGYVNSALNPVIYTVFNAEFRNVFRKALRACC
Description: Inhibition of human dopamine D4 receptor

[1] = biological target: T2, Alpha-1A adrenergic receptor (Homo sapiens, UniProt P35348)
T2 sequence (P35348 whole entry): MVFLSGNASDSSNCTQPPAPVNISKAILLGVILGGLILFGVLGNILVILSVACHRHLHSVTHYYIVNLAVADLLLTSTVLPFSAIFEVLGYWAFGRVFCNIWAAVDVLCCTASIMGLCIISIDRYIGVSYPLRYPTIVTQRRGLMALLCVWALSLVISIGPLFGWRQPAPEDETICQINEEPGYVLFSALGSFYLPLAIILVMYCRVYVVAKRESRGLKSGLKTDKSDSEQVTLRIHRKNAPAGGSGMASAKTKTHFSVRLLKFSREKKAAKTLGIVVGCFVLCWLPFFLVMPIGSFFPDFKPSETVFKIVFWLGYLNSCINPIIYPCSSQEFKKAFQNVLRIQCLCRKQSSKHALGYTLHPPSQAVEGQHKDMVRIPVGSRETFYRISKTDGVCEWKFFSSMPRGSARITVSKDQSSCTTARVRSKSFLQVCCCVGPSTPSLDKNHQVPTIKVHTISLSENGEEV

[2] = biological target: T3, 5-hydroxytryptamine receptor 1A (Homo sapiens, UniProt P08908); assay: Inhibition of human 5HT1A receptor
T3 sequence (P08908 whole entry): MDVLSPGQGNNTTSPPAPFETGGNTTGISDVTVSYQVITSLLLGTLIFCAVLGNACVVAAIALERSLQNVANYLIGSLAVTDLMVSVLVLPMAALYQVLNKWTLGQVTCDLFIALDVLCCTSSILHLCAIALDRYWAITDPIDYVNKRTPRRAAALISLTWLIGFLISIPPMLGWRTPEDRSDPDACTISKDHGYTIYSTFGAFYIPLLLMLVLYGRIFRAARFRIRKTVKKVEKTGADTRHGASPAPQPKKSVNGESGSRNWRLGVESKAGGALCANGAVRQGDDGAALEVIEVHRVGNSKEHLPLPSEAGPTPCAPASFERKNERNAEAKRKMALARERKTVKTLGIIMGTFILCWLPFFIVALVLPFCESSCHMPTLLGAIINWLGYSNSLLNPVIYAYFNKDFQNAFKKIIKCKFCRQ

Rattus norvegicus [3] = assay: Inhibition of quipazine-induced head twitches in po dosed rat head twitch model administered 25 mins prior to quipazine challenge measured after 30 mins; format: functional
[4] = biological target: T4, 5-hydroxytryptamine receptor 2C (Homo sapiens, UniProt P28335); assay: biochemical
T4 sequence (P28335 whole entry): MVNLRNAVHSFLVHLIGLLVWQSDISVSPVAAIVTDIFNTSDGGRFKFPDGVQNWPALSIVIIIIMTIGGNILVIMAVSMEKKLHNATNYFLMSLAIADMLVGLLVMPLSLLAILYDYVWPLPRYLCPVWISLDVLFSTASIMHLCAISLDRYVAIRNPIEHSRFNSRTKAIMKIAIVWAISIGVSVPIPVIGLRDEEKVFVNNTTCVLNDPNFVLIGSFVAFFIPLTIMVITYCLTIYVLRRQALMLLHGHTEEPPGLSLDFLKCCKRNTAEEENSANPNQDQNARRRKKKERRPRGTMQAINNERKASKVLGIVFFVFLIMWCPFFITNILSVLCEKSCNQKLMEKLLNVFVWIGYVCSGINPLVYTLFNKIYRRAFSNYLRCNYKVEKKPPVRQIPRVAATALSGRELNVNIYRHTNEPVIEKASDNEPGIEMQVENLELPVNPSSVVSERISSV
Description: Displacement of [125]DOI from human recombinant full length 5HT2C receptor expressed in HEK293E cells

[5] = biological target: T5, Alpha-1B adrenergic receptor (Homo sapiens, UniProt P35368); assay: Inhibition of adrenergic alpha1B receptor (unknown origin)
T5 sequence (P35368 whole entry): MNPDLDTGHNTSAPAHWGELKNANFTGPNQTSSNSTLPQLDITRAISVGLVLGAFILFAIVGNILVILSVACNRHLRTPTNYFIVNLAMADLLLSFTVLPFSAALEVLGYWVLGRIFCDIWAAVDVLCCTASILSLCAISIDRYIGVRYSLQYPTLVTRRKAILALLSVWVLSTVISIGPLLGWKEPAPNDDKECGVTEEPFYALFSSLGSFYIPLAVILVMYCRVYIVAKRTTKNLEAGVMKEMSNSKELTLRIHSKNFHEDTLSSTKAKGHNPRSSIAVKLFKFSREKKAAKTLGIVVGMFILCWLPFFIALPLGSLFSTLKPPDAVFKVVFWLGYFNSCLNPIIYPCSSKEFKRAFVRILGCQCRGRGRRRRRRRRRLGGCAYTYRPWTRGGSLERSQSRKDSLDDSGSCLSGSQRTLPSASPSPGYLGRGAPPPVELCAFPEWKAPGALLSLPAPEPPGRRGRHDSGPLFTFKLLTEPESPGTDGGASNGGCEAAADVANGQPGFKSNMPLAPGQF

[6] = biological target: 5-hydroxytryptamine receptor 2A (Homo sapiens, UniProt P28223); assay: biochemical; format: cell-based, HEK293E
Chain of 5-hydroxytryptamine receptor 2A (P28223 whole entry): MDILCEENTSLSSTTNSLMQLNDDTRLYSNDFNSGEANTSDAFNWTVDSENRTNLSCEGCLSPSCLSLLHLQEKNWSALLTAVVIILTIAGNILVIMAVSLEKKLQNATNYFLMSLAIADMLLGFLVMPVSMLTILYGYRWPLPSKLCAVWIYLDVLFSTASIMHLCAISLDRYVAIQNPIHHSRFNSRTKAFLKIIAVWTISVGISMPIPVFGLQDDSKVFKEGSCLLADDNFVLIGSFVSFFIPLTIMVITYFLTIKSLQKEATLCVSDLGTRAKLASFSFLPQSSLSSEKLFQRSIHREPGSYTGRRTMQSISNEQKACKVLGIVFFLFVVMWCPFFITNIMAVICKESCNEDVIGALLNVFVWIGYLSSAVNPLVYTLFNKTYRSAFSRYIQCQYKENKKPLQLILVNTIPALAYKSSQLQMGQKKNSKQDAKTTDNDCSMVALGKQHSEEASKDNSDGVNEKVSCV
Description: Displacement of [125]DOI from human recombinant full length 5HT2A receptor expressed in HEK293E cells

D(2) dopamine receptor = D(2) dopamine receptor (Rattus norvegicus, UniProt P61169); assay: biochemical
Chain of D(2) dopamine receptor (P61169 whole entry): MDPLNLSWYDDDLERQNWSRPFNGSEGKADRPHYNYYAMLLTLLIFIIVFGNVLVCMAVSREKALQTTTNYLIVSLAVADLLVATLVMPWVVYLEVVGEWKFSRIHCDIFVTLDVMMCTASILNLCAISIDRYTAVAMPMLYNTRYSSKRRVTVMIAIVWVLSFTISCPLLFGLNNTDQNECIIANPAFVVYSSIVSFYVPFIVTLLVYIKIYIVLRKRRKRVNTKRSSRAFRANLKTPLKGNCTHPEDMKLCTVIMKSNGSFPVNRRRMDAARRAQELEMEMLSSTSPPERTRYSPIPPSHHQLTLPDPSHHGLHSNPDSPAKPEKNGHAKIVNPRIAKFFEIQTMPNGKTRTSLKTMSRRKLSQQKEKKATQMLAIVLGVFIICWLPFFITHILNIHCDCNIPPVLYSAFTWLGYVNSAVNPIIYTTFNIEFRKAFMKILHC
Description: Displacement of [3H]-N-methylspiperone from rat recombinant dopamine D2 short receptor expressed in CHO cells

[7] = Selectivity ratio of Ki for rat recombinant dopamine D2 short receptor to Ki for human recombinant full length 5HT2A receptor
Rattus norvegicus [8] = assay: Toxicity in rat step-down latency model assessed as frank catalepsy at 30 mg/kg; format: organism-based; design: dose 30 mg/kg; conditions: in vivo
Rattus norvegicus [9] = assay: Inhibition of conditioned avoidance response in Sprague-Dawley rat model at 2 mg/kg, po after 2 hrs by electric foot shock test; format: functional, organism-based; design: dose 2 mg/kg
MDR1 [10] = assay: Permeability from apical to basolateral side in MDCK cells transfected with MDR1; format: ADME, cell-based, Canis lupus familiaris; conditions: dog, read-out: permeability
Homo sapiens [11] = species: Homo sapiens; assay: Antipsychotic activity in acute exacerbated schizophrenia patient; format: functional, organism-based
Homo sapiens [12] = assay: Toxicity in schizophrenia patient administered once daily; format: organism-based; conditions: in vivo
[13] = Solubility of the compound in PBS buffer at pH 7.4; format: physicochemical
MDR1 [14] = assay: in vitro; conditions: dog, MDCK-MDR1
Description: Efflux ratio of permeability from basolateral to apical side over apical to basolateral side indog MDCK cells expressing MDR1

Rattus norvegicus [15] = assay: Inhibition of conditioned avoidance response in po dosed Sprague-Dawley rat model after 2 hrs by electric foot shock test; format: functional
[16] = Plasma protein binding in human; format: ADME, cell-free; conditions: read-out: PPB (converted)
Homo sapiens [17] = species: Homo sapiens; assay: Effect on insomnia patient assessed as restoration of sleep architecture; format: functional, organism-based
Histamine H1 receptor = Histamine H1 receptor (Homo sapiens, UniProt P35367)
Chain of Histamine H1 receptor (P35367 whole entry): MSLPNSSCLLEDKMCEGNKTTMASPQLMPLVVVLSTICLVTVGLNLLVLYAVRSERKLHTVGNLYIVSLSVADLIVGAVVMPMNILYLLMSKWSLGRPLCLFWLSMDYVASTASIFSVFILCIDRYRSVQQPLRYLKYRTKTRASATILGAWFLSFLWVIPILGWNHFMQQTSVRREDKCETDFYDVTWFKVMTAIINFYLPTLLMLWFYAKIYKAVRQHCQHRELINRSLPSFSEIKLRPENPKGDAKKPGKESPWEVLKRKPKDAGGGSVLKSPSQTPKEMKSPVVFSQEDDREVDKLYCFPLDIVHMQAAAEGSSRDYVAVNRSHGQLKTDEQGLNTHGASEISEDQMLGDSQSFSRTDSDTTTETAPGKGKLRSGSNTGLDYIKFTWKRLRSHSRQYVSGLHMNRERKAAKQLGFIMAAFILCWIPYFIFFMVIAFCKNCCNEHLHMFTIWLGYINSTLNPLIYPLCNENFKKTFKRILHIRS
Description: Inhibition of histamine H1 receptor (unknown origin)

[18] = biological target: D(2) dopamine receptor (Homo sapiens) (UniProt P14416); assay: Agonist activity at human recombinant dopamine D2 short receptor expressed in CHO cells up to 1 uM in absence of dopamine; format: cell-based
Chain of D(2) dopamine receptor (Homo sapiens) (P14416 whole entry): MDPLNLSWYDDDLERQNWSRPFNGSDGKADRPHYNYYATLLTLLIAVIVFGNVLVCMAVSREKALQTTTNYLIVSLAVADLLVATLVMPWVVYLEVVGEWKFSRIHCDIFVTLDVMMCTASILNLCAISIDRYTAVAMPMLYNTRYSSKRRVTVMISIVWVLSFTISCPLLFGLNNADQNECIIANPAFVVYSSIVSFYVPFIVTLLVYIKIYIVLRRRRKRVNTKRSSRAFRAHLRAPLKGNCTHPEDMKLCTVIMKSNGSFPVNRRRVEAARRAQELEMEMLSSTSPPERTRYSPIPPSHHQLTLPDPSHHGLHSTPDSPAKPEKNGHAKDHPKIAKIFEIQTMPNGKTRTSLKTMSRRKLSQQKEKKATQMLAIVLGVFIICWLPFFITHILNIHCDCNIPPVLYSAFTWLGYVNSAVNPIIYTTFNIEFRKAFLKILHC

Homo sapiens [19] = species: Homo sapiens; assay: Effect on sleep maintenance insomnia patient assessed as reduction of waking after sleep onset
[20] = biological target: D(2) dopamine receptor (Homo sapiens) (UniProt P14416); assay: Antagonist activity at human recombinant dopamine D2 short receptor expressed in CHO cells assessed as inhibition of Eu-GTP binding at 10 uM; format: cell-based
Homo sapiens [21] = assay: Toxicity in healthy human administered once daily; format: organism-based; conditions: in vivo
[22] = biological target: T6, Alpha-1B adrenergic receptor (Homo sapiens) (UniProt P35368); assay: Inhibition of adrenergic alpha1B receptor (unknown origin) at 100 nM
T6 sequence (whole entry): T5 sequence (P35368 whole entry)

Homo sapiens [23] = species: Homo sapiens; assay: Effect on sleep maintenance insomnia patient assessed as increase in slow wave sleep
[24] = Lipophilicity, log D of the compound at pH 1.7; format: physicochemical; conditions: buffer
[25] = biological target: T7, Alpha-1A adrenergic receptor (Homo sapiens) (UniProt P35348); assay: Inhibition of adrenergic alpha1A receptor (unknown origin) at 100 nM
T7 sequence (whole entry): T2 sequence (P35348 whole entry)

[26] = biological target: T8, 5-hydroxytryptamine receptor 1A (Homo sapiens) (UniProt P08908); assay: Inhibition of human 5HT1A receptor at 100 nM
T8 sequence (whole entry): T3 sequence (P08908 whole entry)

Rattus norvegicus [27] = assay: Toxicity in po dosed Sprague-Dawley rat assessed as effect on escape behaviour; format: organism-based; conditions: in vivo
[28] = biological target: D(1A) dopamine receptor (Homo sapiens) (UniProt P21728); assay: Inhibition of human dopamine D1 receptor at 100 nM
Chain of D(1A) dopamine receptor (Homo sapiens) (P21728 whole entry): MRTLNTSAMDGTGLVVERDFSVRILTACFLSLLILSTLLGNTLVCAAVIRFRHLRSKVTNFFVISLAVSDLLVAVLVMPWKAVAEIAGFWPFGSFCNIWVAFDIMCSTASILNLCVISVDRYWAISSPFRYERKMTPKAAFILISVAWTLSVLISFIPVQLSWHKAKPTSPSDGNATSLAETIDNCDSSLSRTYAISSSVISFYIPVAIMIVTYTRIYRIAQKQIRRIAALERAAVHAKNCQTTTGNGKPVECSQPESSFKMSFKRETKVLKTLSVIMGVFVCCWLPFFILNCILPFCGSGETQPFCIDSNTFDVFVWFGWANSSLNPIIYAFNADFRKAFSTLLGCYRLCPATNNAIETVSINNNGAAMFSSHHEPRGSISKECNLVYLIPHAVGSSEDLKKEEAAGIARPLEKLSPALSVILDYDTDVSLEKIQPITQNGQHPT

[29] = Lipophilicity, log D of the compound at pH 7.4; format: physicochemical; conditions: buffer
[30] = biological target: T9, D(4) dopamine receptor (Homo sapiens) (UniProt P21917); conditions: 100 nM
T9 sequence (whole entry): T1 sequence (P21917 whole entry)
Description: Inhibition of human dopamine D4 receptor at 100 nM

[31] = biological target: Sodium-dependent serotonin transporter (Homo sapiens, UniProt P31645); assay: Displacement of [3H]-N-methyl-citalopram from SERT in human platelets at 100 nM after 60 mins by liquid scintillation counting analysis
Chain of Sodium-dependent serotonin transporter (P31645 whole entry, looked up): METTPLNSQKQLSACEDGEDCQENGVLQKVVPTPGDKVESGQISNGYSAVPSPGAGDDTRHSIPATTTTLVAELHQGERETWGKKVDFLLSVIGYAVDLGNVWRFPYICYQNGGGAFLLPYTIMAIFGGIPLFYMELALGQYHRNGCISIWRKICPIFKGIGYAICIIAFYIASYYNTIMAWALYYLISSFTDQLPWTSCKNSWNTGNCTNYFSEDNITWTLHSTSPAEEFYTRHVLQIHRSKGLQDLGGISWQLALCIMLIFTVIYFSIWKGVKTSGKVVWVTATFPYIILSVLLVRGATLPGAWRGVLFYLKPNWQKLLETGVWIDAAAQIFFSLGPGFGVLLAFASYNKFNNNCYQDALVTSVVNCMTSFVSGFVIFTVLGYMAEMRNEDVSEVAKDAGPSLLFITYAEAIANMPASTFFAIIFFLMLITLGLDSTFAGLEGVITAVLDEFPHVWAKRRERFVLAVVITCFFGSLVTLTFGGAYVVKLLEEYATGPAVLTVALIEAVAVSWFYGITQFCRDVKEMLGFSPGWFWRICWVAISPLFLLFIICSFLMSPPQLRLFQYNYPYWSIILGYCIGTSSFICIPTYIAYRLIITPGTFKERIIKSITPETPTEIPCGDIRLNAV

O=C(CCCN1CC[C@H]2[C@@H](C1)c1cccc3c1N2CCO3)c1ccc(F)cc1
Ki (D(4) dopamine receptor): 320 nM
Ki [1]: 262 nM
Ki [2]: 1330 nM
ED50 (Rattus norvegicus [3]): 0.25 mg/kg
Ki [4]: 520 nM
Ki [5]: 104 nM
Ki [6]: 0.89 nM
Ki (D(2) dopamine receptor): 41 nM
Ratio Ki [7]: 46

CN1CCN2c3c(cccc31)[C@@H]1CN(CCCc3noc4ccccc34)CC[C@@H]12
Ki [1]: 314 nM
ED50 (Rattus norvegicus [3]): 1 mg/kg
Ki [4]: 287 nM
Ki [5]: 294 nM
Ki [6]: 3.3 nM
Ki (D(2) dopamine receptor): 174 nM
Ratio Ki [7]: 53

O=C(CCCN1CCC(O)(c2ccc(Cl)cc2)CC1)c1ccc(F)cc1 [HALOPERIDOL]
Activity (Rattus norvegicus [8]): Toxic
Activity (Rattus norvegicus [9]): Active

CN1CCN2c3c(cccc31)[C@@H]1CN(CCCC(=O)c3ccc(F)cc3)CC[C@@H]12.Cc1ccc(S(=O)(=O)O)cc1 [LUMATEPERONE TOSYLATE]
Papp A→B (MDR1 [10]): 15.8 ×10⁻⁶ cm/s
Ki (D(4) dopamine receptor): 108 nM
Activity (Homo sapiens [11]): Active
Activity (Homo sapiens [12]): Non-toxic
solubility [13]: 330 µg/mL
efflux ratio (MDR1 [14]): 1.3
ED50 (Rattus norvegicus [15]): 1.5 mg/kg
fraction unbound [16]: 0.026
Ki [2]: 1480 nM
Activity (Homo sapiens [17]): Active
Ki (Histamine H1 receptor): > 1000 nM
Activity [18]: 0%
Activity (Homo sapiens [19]): Active
ED50 (Rattus norvegicus [3]): 0.12 mg/kg
inhibition [20]: 100%
Activity (Rattus norvegicus [8]): Non-toxic
Activity (Homo sapiens [21]): Non-toxic
inhibition [22]: > 50%
Activity (Homo sapiens [23]): Active
Ki [5]: 31 nM
logD [24]: 0.55
inhibition [25]: > 50%
inhibition [26]: > 50%
Activity (Rattus norvegicus [27]): Non-toxic
inhibition [28]: > 50%
logD [29]: 3.38
inhibition [30]: > 50%

CN1CCN2c3c(cccc31)[C@@H]1CN(CCCC(=O)N3CCC(F)(F)CC3)CC[C@@H]12
Ki [4]: > 1000 nM
Ki [6]: > 1000 nM
Ki (D(2) dopamine receptor): > 1000 nM
inhibition [31]: 3%
